In patent US20220079931A1, “ESTROGEN RECEPTOR PROTEIN DEGRADERS” (THE REGENTS OF THE UNIVERSITY OF MICHIGAN, priority 2019, published 2022):

Target: T1, ERα (Homo sapiens, UniProt P03372)
T1 sequence (P03372 1-595): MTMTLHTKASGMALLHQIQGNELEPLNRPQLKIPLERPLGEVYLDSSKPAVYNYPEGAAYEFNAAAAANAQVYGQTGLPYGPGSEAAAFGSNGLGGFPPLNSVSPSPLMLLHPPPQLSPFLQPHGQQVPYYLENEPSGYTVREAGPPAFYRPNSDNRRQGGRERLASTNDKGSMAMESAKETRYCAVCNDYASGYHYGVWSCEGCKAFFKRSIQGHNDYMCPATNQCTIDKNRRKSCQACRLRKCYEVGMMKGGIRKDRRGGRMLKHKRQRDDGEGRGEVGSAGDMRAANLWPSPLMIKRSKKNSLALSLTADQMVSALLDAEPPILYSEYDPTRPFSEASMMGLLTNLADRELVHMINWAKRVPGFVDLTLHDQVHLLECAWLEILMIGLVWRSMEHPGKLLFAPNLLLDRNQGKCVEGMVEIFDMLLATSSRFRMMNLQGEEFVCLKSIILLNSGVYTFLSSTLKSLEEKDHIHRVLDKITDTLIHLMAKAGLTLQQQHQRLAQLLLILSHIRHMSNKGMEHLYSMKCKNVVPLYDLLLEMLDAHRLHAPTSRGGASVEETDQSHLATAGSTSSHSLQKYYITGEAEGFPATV
Test: ER degradation by Western blotting in MCF-7 cells
Type: cell-based
Parameters: host or cells: MCF-7
Experimental: FIG. 1 is an image showing the Western blotting analysis of ER protein in MCF-7 cells treated with Compounds of the Disclosure and control compounds. Cells were treated with different compounds for 4 h and whole cell lysates were then analyzed by Western blotting to examine the level of ER protein. GADPH protein was used for the loading control. The numbers below the panel represent the ERα/GADPH ratio normalized with the DMSO control at 100.
FIG. 2 is an image showing the Western blotting analysis of ER protein in the MCF-7 cells treated with indicated compounds at 1 nM, 10 nM and 100 nM. MCF-7 cells were treated with different compounds for 4 h and whole cell lysates were analyzed by Western blotting to examine the level of ER protein. GADPH protein was used for the loading control. The numbers below the panel represent the ERα/GADPH ratio normalized with the DMSO control at 100.
FIG. 7 is an image showing the ERα degradation dose-response Western blotting for compound 32 at 4 h in MCF-7 cells.
FIG. 9 is an image showing the time course of ERα degradation by Western blotting by compound 32 (30 nM) and fulvestrant (30 nM) in the MCF-7 cells.
Cell Culture. Human breast cancer cell lines MCF-7 (ATCC® HTB-22™) and T47D (ATCC® HTB-133™) were purchased from the American Type Culture Collection (ATCC), Manassas, Va., and maintained and cultured in Dulbecco's Modified Eagle's medium (DMEM) containing 10% fetal bovine serum, 1 unit/ml of penicillin and 1 μg/ml of streptomycin. Cells with 3-8 passages after purchase were used in experiments as indicated.
Western Blot Analysis. Western blot analysis was performed essentially as described previously (Hu et al, 2015, PMID: 26358219). Cells treated with indicated compounds were lysed in Radioimmunoprecipitation Assay Protein Lysis and Extraction Buffer (25 mmol/L Tris.HCl, pH 7.6, 150 mmol/L NaCl, 1% Nonidet P-40, 1% sodium deoxycholate, and 0.1% sodium dodecyl sulfate) containing proteinase inhibitor cocktail (Roche Diagnostics, Mannheim, Germany). After determination of protein concentration by BCA assay (Fisher Scientific, Pittsburgh, Pa.), equal amounts of total protein were electrophoresed through 10% SDS-polyacrylamide gels. The separated protein bands were transferred onto PVDF membranes (GE Healthcare Life Sciences, Marlborough, Mass.) and blotted against different antibodies, as indicated. The human estrogen receptor a antibodies (AB16460) were purchased from Abeam, Inc., Cambridge, Mass. The membranes were reblotted with horseradish peroxidase-conjugated anti-glyceraldehyde-3-phosphate dehydrogenase antibody (G9295) from Sigma-Aldrich Corporation, St. Louis, Mo. The blots were scanned and the band intensities were quantified using GelQuant.NET software as described in biochemlabsolutions.com. The relative mean intensity of target proteins was expressed after normalization to the intensity of glyceraldehyde-3-phosphate dehydrogenase bands from individual repeats.

For CCN(CCCCCOCC(=O)N[C@H](C(=O)N1C[C@H](O)C[C@H]1C(=O)N[C@@H](C)c1ccc(-c2scnc2C)cc1)C(C)(C)C)CCOc1ccc(C(=O)c2c(-c3ccc(O)cc3)sc3cc(O)ccc23)cc1 [compound 32, (2S,4R)-1-((S)-2-(2-((5-(Ethyl(2-(4-(6-hydroxy-2-(4-hydroxyphenyl)benzo[b]thiophene-3-carbonyl)phenoxy)ethyl)amino)pentyl)oxy)acetamido)-3,3-dimethylbutanoyl)-4-hydroxy-N—((S)-1-(4-(4-methylthiazol-5-yl)phenyl)ethyl)pyrrolidine-2-carboxamide], the “reduction of ER protein level at 1 h” value (30 nM, 1 h treatment) was over 80%, the “ER degradation at the 3 h time-point” value (30 nM, 3 h) was “essentially complete ER degradation” and the DC50 (4 h treatment, read-out: DC50 (concentration to achieve 50% of protein degradation)) was 0.17 nM. The “maximum ER degradation” value (at concentrations as low as 5 nM) was over 95%.
